Assays:
ABCD1 KO mice = experiment: Reduction of C26:0 LPC, SC-VLCFA and acyl carnitine levels in ABCD1 KO brains; type: in vivo, mouse; conditions: for reduction of brain C26:0 acyl carnitine levels: after 2 months of treatment
Experimental: To examine the effect of Compound 87 on VLCFA levels in the CNS, female ABCD1 KO mice were treated with vehicle, 1 or 10 mg/kg PO QD for 2 weeks (14 days; n=5 per group), 1 month (28 days; n=5 per group), 2 months (56 days; n=6 per group), or 3 months (84 days; n=6 per group). The brain samples used in this study were from the same mice used in the long term dosing study in ABCD1 knock-out mice and WT mice (see Example 2.3). Brain tissue samples were collected after 2, 4, 8, or 12 weeks of dosing with vehicle or Compound 87. Brain samples were frozen at −70° C. and were analyzed for VLCFA (LPC, SC-VLCFA, acyl-carnitines) via liquid chromatography-mass spectrometry (LCMS) as described below. The vehicle used was 2% TPGS and Compound 87 doses were prepared in 2% TPGS.
Levels of VLCFA, including straight chain very long chain fatty acids (SC-VLCFA), acyl carnitines, and lysophosphatidylcholines (LPC), in the brain were examined. SC-VLCFA were expected to be rapidly incorporated into other forms and acyl carnitines were expected to be rapidly degraded, contributing to a short expected half-life for these forms. LPC was expected to integrate into membranes, contributing to a longer expected half-life.
Brain Sample Preparation:
(i) 3 volumes of MeOH was add to each sample; (ii) homogenized tissue samples with FastPrep (FP120) at 4.5 intensity for 25 seconds; and (iii) aliquoted tissue lysates.
LPC and Acylcarnitine Extraction with CHCl3/MeOH Liquid-Liquid Extraction:
Added 1 mL MeOH, then added 1 mL […] to the brain tissue lysates; incubated 30 minutes at room temperature; added 1 mL CHCl3 and 0.75 mL H2O; incubated 30 minutes; centrifuged max for 10 minutes; transferred lower layer to new vials; organic phase was dried using Turbo-Vac. The resulting residue was re-constituted with MeOH.
3-Step Chemical Derivatization of SC-VLCFA Using Dimethylaminoethanol (VLCFA-DMAE):
(i) added oxalyl chloride (2 mol/l oxalyl chloride in CH2Cl2, 200 ul) to the dried mixture, incubated at 65° C. for 5 minutes; (ii) added 60 uL dimethylaminoethanol, incubated at 25° C. for 5 minutes and dried down; (iii) added 100 uL methyl iodide, incubated briefly and dried down. The resulting residue was re-constituted with ethanol (EtOH).
LCMSMS Detection of VLCFA (e.g., Spingomyelin (SM) and LPC and Derivatized VLCFA (FA-DMAE)):
LPC Detection: • Column: Discovery C18, 2.1×20 mm • Phase A: 50% MeOH/5 mM AF; Phase B: 2-propanol • MS: 4000 Qtrap operated in ESI MRM positive mode
FA-DMAE Detection: • Column: Synergi Polar RP, 2×150 mm • Phase A: H2O/0.1% FA; Phase B: ACN/0.1% FA • MS: 4000 Qtrap operated in ESI MRM positive mode

[1] = tested on: ALD patient B-lymphocytes; experiment: Reduction in C26:0 LPC in ALD patient B-lymphocytes in vitro; type: cell-based; conditions: Homo sapiens, Lymphocyte, half maximal reduction in C26:0 LPC
Experimental: Lysophosphatidylcholine (LPC) VLCFA were generated from straight chain VLCFA (SC-VLCFA) and were used clinically for newborn screening (Vogel et al., Mol. Genet. Metab. (2015) 114(4):599-603). In vitro efficacy studies were performed by measuring LPC VLCFA level (measured as LPC synthesis) in various cell lines, specifically in 1) human HEK cells, 2) patient derived cells, and 3) human microglia, which are disease relevant CNS cells. Compound 87's dose response relationships and IC50 values were measured in HEK cells, primary patient fibroblasts, immortalized patient lymphocytes, and a human microglial cell line. To measure LPC VLCFA synthesis, the foregoing cells were grown in the presence of ^13C labeled acetate (13C Labeled sodium acetate; Sigma Aldrich #282014) and Compound 87 (prepared in DMSO) for about 48 hours. Primary patient fibroblasts and immortalized primary patient lymphocytes were acquired from the Coriell Cell Repository at the Coriell Institute for Medical Research.
Immortalized primary patient lymphocytes cell lines (cell lines GM13496, GM13497, and GM04674) were obtained from the Coriell Cell Repository at the Coriell Institute for Medical Research. Lymphocytes were cultured and plated at a desired cell density, such as 1×10^5 cells/well. […] The plate was sealed with a plate tape and put at −80° C. for further VLCFA extraction and VLCFA quantitation on LC-MS, as described below.
VLCFA Extraction and Quantitation on LCMS:
Treated cells were transferred to a polypropylene v-bottom plate and then centrifuged at 1690×g for 10 minutes. […] The plates were then sealed with pierceable capmats (Micronic MP53017) and stored at −20° C. until further analyzed using UPHLC/Mass Spectrometry Readout, as described above in example 2.1, which measured the integration of ^13C into lysophosphatidylcholine (LPC) indicated fatty acid elongation. Specifically, C16:0, C18:0, C20:0, C22:0, C24:0, and C26:0 LPC levels were measured via mass spectroscopy as described above and IC50 values indicated half maximal reduction in C26:0 LPC levels.

[2] = 1 mg/kg or 10 mg/kg PO QD, after 2 weeks of dosing

IC50 ([1]; Patient Lymphocyte (CALD)): 15 nM | IC50 ([1]; Patient Lymphocyte (Het 1)): 5 nM | IC50 ([1]; Patient Lymphocyte (Het 2)): 9 nM
Compound: O=C(Nc1ccn(-c2ccnc(F)c2)n1)C1(c2ccccc2F)CC1 [Compound 87, 1-(2-fluorophenyl)-N-[1-(2-fluoro-4-pyridyl)pyrazol-3-yl]cyclopropanecarboxamide]
reduction in brain C26:0 LPC (ABCD1 KO mice; 1 mg/kg PO QD, 2 months): ~30% | reduction of brain C26:0 SC-VLCFA levels (ABCD1 KO mice; 1 mg/kg PO QD, 2 months): about 30% | reduction in brain C26:0 LPC (ABCD1 KO mice; 1 mg/kg PO QD, 3 months): ~30% | reduction of brain C26:0 SC-VLCFA levels (ABCD1 KO mice; 1 mg/kg PO QD, 3 months): about 50% | reduction of brain C26:0 acyl carnitine levels (ABCD1 KO mice; 1 mg/kg PO QD): ~50% | brain C24:0 LPC levels (normalized by C16:0 LPC levels) (ABCD1 KO mice; 1 mg/kg or 10 mg/kg PO QD, 3 months): significant reduction | brain LPC levels (ABCD1 KO mice; [2]): no changes | brain SC-VLCFA levels (ABCD1 KO mice; [2]): no changes | reduction in brain C26:0 LPC (ABCD1 KO mice; 10 mg/kg PO QD, 2 months): ~40% | reduction of brain C26:0 SC-VLCFA levels (ABCD1 KO mice; 10 mg/kg PO QD, 2 months): about 55% | reduction of brain C26:0 acyl carnitine levels (ABCD1 KO mice; 10 mg/kg PO QD): ~70% | brain C24:0 SC-VLCFA level (ABCD1 KO mice; 10 mg/kg PO QD, after 3 months of dosing): significant reduction

Reference: patent US20180251431A1 (VERTEX PHARMACEUTICALS INCORPORATED, priority 2016, published 2018)
